Reference: patent US11647752B2 (priority 2020, dated 2023)
Where “and” joins values, the source holds several entries; their conditions need not be identical. Identical values can stand only once. Like-named read-outs stand apart in the source and are kept apart here.

Key:
[1] = system: Ralstonia solanacearum (tobacco bacterial wilt pathogen HF-1-1); type: cell-based; settings: 50 μL per hole, 37° C., 12 h
[2] = system: Ralstonia solanacearum (pathogen HF-1-1); type: cell-based; settings: NaHS 0, 200, 400, 600, 800 mg/L in liquid culture, 12 h, 37° C.
[3] = system: Ralstonia solanacearum in tobacco roots; type: in vivo; settings: for Amount of Ralstonia solanacearum in the roots: 12 h of inoculation

[Na+].[SH-] [NaHS]
Diameter of inhibition zone ([1]; NaHS 200 mg/L): 11.20±0.72 mm and 11.20 mm
Diameter of inhibition zone ([1]; NaHS 400 mg/L): 14.61±0.93 mm and 14.61 mm
Diameter of inhibition zone ([1]; NaHS 600 mg/L): 19.43±0.41 mm and 19.43 mm
Diameter of inhibition zone ([1]; NaHS 800 mg/L): 21.21±1.22 mm and 21.21 mm
Biomass of the pathogen HF-1-1 (OD600) [2]: decreased with the increase of its concentration
Amount of Ralstonia solanacearum in the roots ([3]; N200 (NaHS 200 mg/L)): 1.36 ×10^4 CFU/g
Content of Ralstonia solanacearum in the tobacco roots compared with CK and N- groups ([3]; N200-N800 (NaHS 200-800 mg/L), 24 h and 36 h): relatively lower
Amount of Ralstonia solanacearum in the roots ([3]; N400 (NaHS 400 mg/L)): 1.39 ×10^4 CFU/g
Amount of Ralstonia solanacearum in the roots ([3]; N600 (NaHS 600 mg/L)): 1.40 ×10^4 CFU/g
Amount of Ralstonia solanacearum in the roots ([3]; N800 (NaHS 800 mg/L)): 1.37 ×10^4 CFU/g
Decrease of number of Ralstonia solanacearum colonized on tobacco roots compared with control group ([3]; NaHS 800 mg/L, 36 hours): 98.32%

NO [H2S inhibitor, hydroxylamine, reference compound]
Amount of Ralstonia solanacearum in the roots ([3]; N- (10 mL 0.8 mmol hydroxylamine)): 1.38 ×10^4 CFU/g
